Assay results: the supplement of paper PMC11061612

Legend:
Assay in all cases: Bliss excess, mean over the matrix (fraction); higher = more synergy
[1] = system: CAL-62 (Thyroid Gland Carcinoma)
In short: (§1)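 Bliss excess equals the observed combination effect minus the expected value EA + EB − EA·EB, where EA and EB are the effects of each agent alone. Combination Emax is the second-highest inhibition within the matrix. Inhibition was scaled from CellTiter-Glo 2.0 luminescence, with 0 set by vehicle wells and 1 by blank wells, after 72 hours of two-drug dosing of cells plated in 1536-well plates.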

[2] = system: GB-1 (Glioblastoma)
In short: as §1

[3] = system: HCT-15 (Colorectal Carcinoma)
In short: as §1

[4] = system: HEC-1 (Endometrial Carcinoma)
In short: as §1

[5] = system: HSC-39 (Gastric Carcinoma)
In short: as §1

[6] = system: IST-MES1 (Mesothelioma)
In short: as §1

[7] = system: KE-37 (T-Lymphoblastic Leukemia)
In short: as §1

[8] = system: L-1236 (Hodgkin's Lymphoma)
In short: as §1

[9] = system: NCI-H2342 (Lung Adenocarcinoma)
In short: as §1

[10] = system: NCI-H446 (Small Cell Lung Carcinoma)
In short: as §1

[11] = system: OAW-42 (Ovarian Carcinoma)
In short: as §1

[12] = system: OVMIU (Ovarian Carcinoma)
In short: as §1

[13] = system: PSN1 (Pancreatic Carcinoma)
In short: as §1

[14] = system: REH (B-Lymphoblastic Leukemia)
In short: as §1

[15] = system: RERF-GC-1B (Gastric Carcinoma)
In short: as §1

[16] = system: RERF-LC-Sq1 (Squamous Cell Lung Carcinoma)
In short: as §1

[17] = system: SF539 (Glioblastoma)
In short: as §1

[18] = system: SHP-77 (Small Cell Lung Carcinoma)
In short: as §1

[19] = system: SK-PN-DW (Other Solid Carcinomas)
In short: as §1

[20] = system: WM278 (Melanoma)
In short: as §1

SMILES | Bliss excess [1] | Bliss excess [2] | Bliss excess [3] | Bliss excess [4] | Bliss excess [5] | Bliss excess [6] | Bliss excess [7] | Bliss excess [8] | Bliss excess [9] | Bliss excess [10] | Bliss excess [11] | Bliss excess [12] | Bliss excess [13] | Bliss excess [14] | Bliss excess [15] | Bliss excess [16] | Bliss excess [17] | Bliss excess [18] | Bliss excess [19] | Bliss excess [20]
CC1(C)CCC(CN2CCN(c3ccc(C(=O)NS(=O)(=O)c4ccc(NCC5CCOCC5)c([N+](=O)[O-])c4)c(Oc4cnc5[nH]ccc5c4)c3)CC2)=C(c2ccc(Cl)cc2)C1 [Venetoclax] + CN(C)CCCOc1ccc(-c2ccc3ncc4c(c3c2)n(C2CCOCC2)c(=O)n4C)cn1 [AZD0156] (first compound max 1 µM, 7x7, partner max 1 µM) | 0.0063 | -0.0206 | -0.0192 | 0.0064 | 0.015 | -0.0382 | -0.0036 | -0.0182 | -0.0546 | 0.0143 | -0.0402 | -0.111 | -0.0421 | 0.0037 | -0.0356 | -0.0401 | 0.0126 | 0.0254 | -0.0437 | -0.0496
CC1(C)CCC(CN2CCN(c3ccc(C(=O)NS(=O)(=O)c4ccc(NCC5CCOCC5)c([N+](=O)[O-])c4)c(Oc4cnc5[nH]ccc5c4)c3)CC2)=C(c2ccc(Cl)cc2)C1 [Venetoclax] + COc1cc(Nc2ncc3c(n2)-c2ccc(Cl)cc2C(c2c(F)cccc2OC)=NC3)ccc1C(=O)O [Alisertib] (first compound max 1 µM, 7x7, partner max 10 µM) | -0.0092 | -0.03 | -0.0034 | -0.0385 | -0.103 | -0.0479 | -0.0545 | -0.05 | -0.0792 | -0.0775 | -0.079 | -0.151 | -0.0219 | 0.22 | -0.0274 | -0.0289 | 0.0396 | 0.241 | -0.127 | 0.0416
CC1(C)CCC(CN2CCN(c3ccc(C(=O)NS(=O)(=O)c4ccc(NCC5CCOCC5)c([N+](=O)[O-])c4)c(Oc4cnc5[nH]ccc5c4)c3)CC2)=C(c2ccc(Cl)cc2)C1 [Venetoclax] + C[C@@H]1COCCN1C2=NC(=NC(=C2)C3(CC3)[S@](=N)(=O)C)C4=C5C=CNC5=NC=C4 [AZD6738] (first compound max 1 µM, 7x7, partner max 10 µM) | 0.0023 | -0.0281 | -0.0084 | -0.0267 | 0.0079 | -0.0101 | 0.0293 | -0.019 | -0.0209 | -0.0536 | -0.016 | -0.111 | -0.0848 | 0.0493 | -0.0579 | -0.0476 | -0.0339 | -0.007 | -0.0045 | -0.0712
CC1(C)CCC(CN2CCN(c3ccc(C(=O)NS(=O)(=O)c4ccc(NCC5CCOCC5)c([N+](=O)[O-])c4)c(Oc4cnc5[nH]ccc5c4)c3)CC2)=C(c2ccc(Cl)cc2)C1 [Venetoclax] + C[C@@H](Nc1cc(F)cc(F)c1)c1cc(C(=O)N(C)C)cc2c(=O)cc(N3CCOCC3)oc12 [AZD8186] (first compound max 1 µM, 7x7, partner max 3 µM) | -0.0173 | -0.0076 | -0.0184 | -0.0336 | -0.0503 | -0.0423 | 0.0385 | -0.0261 | -0.0643 | 0.135 | -0.047 | -0.129 | -0.0683 | 0.01 | -0.028 | -0.0242 | -0.0062 | 0.0205 | -0.0038 | -0.0199
CC1(C)CCC(CN2CCN(c3ccc(C(=O)NS(=O)(=O)c4ccc(NCC5CCOCC5)c([N+](=O)[O-])c4)c(Oc4cnc5[nH]ccc5c4)c3)CC2)=C(c2ccc(Cl)cc2)C1 [Venetoclax] + Cc1cc2ncnn2cc1Nc1ncc2c(n1)n(C1CCOCC1)c(=O)n2C [AZD7648] (first compound max 1 µM, 7x7, partner max 10 µM) | -0.025 | -0.0591 | -0.0043 | -0.0286 | -0.0289 | -0.0284 | 0.0325 | -0.0274 | -0.0473 | -0.0181 | -0.0381 | -0.109 | -0.0534 | 0.0108 | -0.0276 | -0.0268 | 0.0069 | -0.0088 | -0.054 | -0.0476
CC1(C)CCC(CN2CCN(c3ccc(C(=O)NS(=O)(=O)c4ccc(NCC5CCOCC5)c([N+](=O)[O-])c4)c(Oc4cnc5[nH]ccc5c4)c3)CC2)=C(c2ccc(Cl)cc2)C1 [Venetoclax] + Cn1cnc2c(F)c(Nc3ccc(Br)cc3Cl)c(C(=O)NOCCO)cc21 [Selumetinib] (first compound max 1 µM, 7x7, partner max 3 µM) | -0.0114 | -0.0366 | -0.0231 | -0.0315 | -0.048 | -0.0381 | -0.0013 | -0.0319 | -0.0628 | -0.0372 | -0.0283 | -0.0641 | -0.0262 | -0.0467 | 0.0095 | -0.0467 | 0.0003 | 0.105 | -0.0308 | -0.0319
